Our source for the IC50 values is BindingDB's records for doi:10.3109/14756366.2010.548329 (Sun Yat-sen University, 2011).

Experiment [1] addresses Acetylcholinesterase (Electrophorus electricus, UniProt O42275). The experiment can be described thus: Enzyme Inhibition Assay. Conditions: pH 8; 37 °C. The protocol:
(§1) Enzyme solutions were prepared to give 2.0 units/mL in 2 mL aliquots. The assay medium contained phosphate buffer, pH 8.0 (1 mL), 50 μL of 0.01 M DTNB, 10 μL of enzyme, and 50 μL of 0.01 M substrate (ATC). The substrate was added to the assay medium containing enzyme, buffer, and DTNB with inhibitor after 15 min of incubation time. […] In vitro BuChE assay use the similar method described above.

In experiment [2] the target is Cholinesterase (Equus caballus, UniProt P81908). The experiment can be described thus: Enzyme Inhibition Assay. Conditions: pH 8; 37 °C. The procedure:
as §1

Chain of Cholinesterase (P81908 whole entry): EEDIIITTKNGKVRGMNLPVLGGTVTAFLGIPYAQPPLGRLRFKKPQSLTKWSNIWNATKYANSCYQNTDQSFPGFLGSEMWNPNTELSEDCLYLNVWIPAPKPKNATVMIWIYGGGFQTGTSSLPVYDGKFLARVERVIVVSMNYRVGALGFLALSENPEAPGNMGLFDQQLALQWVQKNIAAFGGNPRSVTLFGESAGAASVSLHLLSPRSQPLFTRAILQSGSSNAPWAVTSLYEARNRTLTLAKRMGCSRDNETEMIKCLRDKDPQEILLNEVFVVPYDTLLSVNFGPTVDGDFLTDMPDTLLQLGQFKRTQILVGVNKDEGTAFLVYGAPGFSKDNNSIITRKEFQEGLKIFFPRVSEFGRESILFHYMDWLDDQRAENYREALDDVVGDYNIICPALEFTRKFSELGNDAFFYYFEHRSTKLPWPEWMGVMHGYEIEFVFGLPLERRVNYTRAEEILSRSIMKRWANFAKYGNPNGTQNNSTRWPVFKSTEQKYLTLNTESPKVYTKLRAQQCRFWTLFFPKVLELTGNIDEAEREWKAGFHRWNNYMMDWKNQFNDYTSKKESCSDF
Chain of Acetylcholinesterase (O42275 whole entry): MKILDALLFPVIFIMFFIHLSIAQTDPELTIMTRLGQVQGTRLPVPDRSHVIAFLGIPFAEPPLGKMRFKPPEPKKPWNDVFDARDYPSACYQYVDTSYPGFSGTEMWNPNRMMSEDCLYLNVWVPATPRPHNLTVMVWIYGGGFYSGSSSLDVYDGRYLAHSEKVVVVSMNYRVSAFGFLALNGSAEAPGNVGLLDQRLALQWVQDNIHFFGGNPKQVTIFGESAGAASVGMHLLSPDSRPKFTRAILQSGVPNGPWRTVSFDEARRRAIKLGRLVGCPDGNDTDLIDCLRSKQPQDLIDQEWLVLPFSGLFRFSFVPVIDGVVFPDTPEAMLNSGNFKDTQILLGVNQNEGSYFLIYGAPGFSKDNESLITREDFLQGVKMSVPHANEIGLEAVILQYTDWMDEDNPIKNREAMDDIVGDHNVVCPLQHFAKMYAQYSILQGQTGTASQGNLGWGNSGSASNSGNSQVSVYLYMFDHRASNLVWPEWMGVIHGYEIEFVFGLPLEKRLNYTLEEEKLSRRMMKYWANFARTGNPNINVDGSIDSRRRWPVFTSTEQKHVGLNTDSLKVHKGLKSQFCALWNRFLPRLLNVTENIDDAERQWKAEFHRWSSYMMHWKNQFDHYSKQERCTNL

A word on the IC50: it is the point on the concentration scale where inhibition reaches its midpoint. A lower IC50 goes with greater potency. Turning to `COc1cc(CNCCCCCCCCNCc2cc(OC)c3c(c2)OCO3)cc2c1OCO2` [N1, N8-bis((7-methoxybenzo[d][1,3]dioxol-5-yl)methyl)octane-1,8-diamine (5f)], the IC50 was 2.79 µM in experiment [1] and 3.11 µM in experiment [2].

Consider `COc1cc(CNCCCNCc2cc(OC)c3c(c2)OCO3)cc2c1OCO2` [N1,N3-bis((7-methoxybenzo[d][1,3]dioxol-5-yl)methyl)propane-1,3-diamine (5a)], for which the half-maximal inhibitory concentration (IC50) is > 125 µM in experiment [1] and 52.3 µM in experiment [2].

As for `COc1cc(CNCCCCNCc2cc(OC)c3c(c2)OCO3)cc2c1OCO2` [N1,N4-bis((7-methoxybenzo[d][1,3]dioxol-5-yl)methyl)butane-1,4-diamine (5b)], the IC50 in experiment [1] was determined as 120 µM; in experiment [2], 12.1 µM.

Regarding `COc1cc(CNCCCCCNCc2cc(OC)c3c(c2)OCO3)cc2c1OCO2` [N1,N5-bis((7-methoxybenzo[d][1,3]dioxol-5-yl)methyl)pentane-1,5-diamine (5c)], the results for the IC50 in experiment [1] and in experiment [2] were 13.2 µM and 3.35 µM, respectively.

In the case of `COc1cc(CNCCCCCCNCc2cc(OC)c3c(c2)OCO3)cc2c1OCO2` [N1,N6-bis((7-methoxybenzo[d][1,3]dioxol-5-yl)methyl)hexane-1,6-diamine (5d)], the IC50 in experiment [1] is 9.78 µM; in experiment [2], 2.07 µM.

`COc1cc(CNCCCCCCCNCc2cc(OC)c3c(c2)OCO3)cc2c1OCO2` [N1,N7-bis((7-methoxybenzo[d][1,3]dioxol-5-yl)methyl)heptane-1,7-diamine (5e)]: the IC50 in experiment [1] was 4.24 µM; in experiment [2], 3.02 µM.

Regarding `COc1cc(CNCCCCCCCCCNCc2cc(OC)c3c(c2)OCO3)cc2c1OCO2` [N1,N9-bis((7-methoxybenzo[d][1,3]dioxol-5-yl)methyl)nonane-1,9-diamine (5g)], the IC50 in experiment [1] worked out at 2.76 µM; in experiment [2], 5.14 µM.
